Results taken from patent publication US20160264655A1, “Treating cancers with drugs targeting CREB3L1” (Board of Regents, The University of Texas System, priority 2013, published 2016).
Read-outs that look alike come from different tables or passages of the source.

How the values were obtained:
Huh7 cells [1] = assay: Proliferation of Huh7 cells; type: cell-based, human
Method: (§1) Inasmuch as CREB3L1 was required for doxorubicin to induce expression of p21, a well-characterized inhibitor of the cell cycle (11), we determined whether CREB3L1 was also required for the drug to inhibit cell proliferation. […] These concentrations of doxorubicin were not enough to trigger apoptosis of Huh7 cells, which became apparent only when the cells were treated with 5 μM of the compound.

CREB3L1 [2] = assay: CREB3L1 cleavage, immunoblot of membrane and nuclear fractions of Huh7 cells; type: cell-based, human; conditions: for amount of the nuclear form of CREB3L1 (cleavage of CREB3L1): Huh7 cells, compound alone
Description: We fractionated human hepatoma Huh7 cells (6) into membrane and nuclear fractions, and used an antibody reacting against the NH2-terminal domain of CREB3L1 (3) to examine the cleavage of CREB3L1 through immunoblot analysis.

collagen 1a1 and p21 = assay: Expression of CREB3L1 target genes in Huh7 cells; type: cell-based, human
Method: as §1

CREB3L1 [3] = assay: CREB3L1 cleavage in wild type and S1P- or S2P-deficient CHO cells; type: cell-based, Chinese Hamster
ceramide synthesis = assay: Ceramide synthesis, tritium-labeled palmitate incorporation in Huh7 cells; type: cell-based, human
Description: RIP of membrane-bound transcription factors is known to be a signal transduction pathway that transfers signals from the ER to nucleus (5). […] Daunorubicin, a chemotherapeutic drug derived from doxorubicin, was reported to induce de novo synthesis of ceramide (15).

Huh7 cells [4] = assay: Apoptosis of Huh7 cells; type: cell-based, human
Method: as §1

human kidney tumor = assay: Xenograft of human kidney tumors in mice; type: in vivo
MCF-7 cells = assay: Proliferation of MCF-7 cells with or without CREB3L1 overexpression; type: cell-based, human; conditions: for IC50: Homo sapiens, MCF7, 48 h, treated 2 days, read-out: IC50 for doxorubicin; for proliferation (cell counting, cellular DNA content): 15 nM for 6 days
Method: (§2) If proteolytic activation of CREB3L1 is required for doxorubicin to inhibit cell proliferation, then the amount of CREB3L1 expressed in cancer cells may determine their sensitivity to doxorubicin. To test this hypothesis, we analyzed SV589 cells, an immortalized line of human fibroblasts (12), and MCF-7 cells, a line of human breast cancer cells (13). […] In this experiment, cells were treated with doxorubicin for 2 days. To determine the effect of CREB3L1 expression on proliferation of the cells treated with doxorubicin for a longer period of time, we incubated MCF-7 and MCF7/pCREB3L1(H) cells with 15 nM doxorubicin for 6 days.

[5] = patients treated with the drug; cited from earlier work
histone γH2AX = assay: DNA breaks, histone γH2AX marker; type: cell-based
MCF7 = MCF7 xenograft in athymic nude mice; type: in vivo; conditions: MCF7 overexpressing CREB3L1 vs without overexpression
Method: In particular, the relationship between CREB3L1 expression and doxorubicin sensitivity is confirmed in a study of 45 lines of breast cancer cells from ATCC Breast Cancer Cell Panel. […] The relationship between CERB3L1 expression and doxorubicin sensitivity is also confirmed in vivo by injection of MCF7 with or without overexpression of CREB3L1 into athymic nude mice. These mice are then treated with different doses of doxorubicin, confirming that the dose of doxorubicin required to shrink tumors produced from MCF7 cells overexpressing CREB3L1 are lower than those required to shrink tumors generated from those without the overexpression.

SV589 cells = assay: Growth inhibition of SV589 cells; type: cell-based, human; conditions: two siRNA duplexes
Method: as §2

cell growth = assay: Requirement of CREB3L1 for inhibition of cell growth; type: cell-based
Description: We then determined the relationship between doxorubicin-induced cleavage of CREB3L1 and DNA breaks caused by inhibition of topoisomerase. […] However, this effect was unaffected by knockdown of CREB3L1 expression.

[6] = Huh7 cells with CREB3L1 knockdown

For CCCCCCCCCCCCC/C=C/[C@@H](O)[C@H](CO)NC(=O)CCCCC [C6-ceramide], the “inhibition of cell proliferation after CREB3L1 knockdown” value (Huh7 cells [1]; [6]) was “completely abolished the ability of C6-ceramide to inhibit cell proliferation” and the “amount of the nuclear form of CREB3L1 (cleavage of CREB3L1)” value (from here on “amount of the nuclear form of CREB3L1”) (CREB3L1 [2]) was “stimulated CREB3L1 cleavage”.
For CCCCCCC(=O)CCCCCC/C=C/C[C@@H](O)[C@H](O)[C@@](N)(CO)C(=O)O [Myriocin], the “effect of co-treatment on cell sensitivity to doxorubicin” value (Huh7 cells [1]; co-treatment with doxorubicin) was “rendered the cells more resistant to doxorubicin” and the “inhibition of doxorubicin-induced cleavage of CREB3L1” value (CREB3L1 [2]; co-treatment with doxorubicin) was “inhibited doxorubicin-induced cleavage of CREB3L1 in a dose-dependent manner”.
For COc1cccc2c1C(=O)c1c(O)c3c(c(O)c1C2=O)C[C@@](O)(C(=O)CO)C[C@@H]3O[C@H]1C[C@H](N)[C@H](O)[C@H](C)O1 [doxorubicin, Doxorubicin], the “induction of collagen 1a1 and p21” value (collagen 1a1 and p21; Huh7-shCREB3L1 cells) was “markedly blunted”, the “expression of collagen 1a1 and p21” value (collagen 1a1 and p21; Huh7-shControl cells) was “induced the expression of collagen 1a1 and p21” and the “cleavage of CREB3L1 to the nuclear form” value (CREB3L1 [3]; mutant CHO cells deficient in either S1P or S2P) was “failed to produce the nuclear form of CREB3L1”. For the same molecule, the “cleavage of CREB3L1 to the nuclear form” value (CREB3L1 [3]; wild type CHO cells) was “stimulated cleavage of CREB3L1”, the “tritium-labeled palmitate incorporated into ceramide” value (ceramide synthesis) was “increased the amount of tritium-labeled palmitate incorporated into ceramide” and the “concentration at which apoptosis became apparent” value (Huh7 cells [4]) was 5 µM. The “effect compared with rapamycin” value (human kidney tumor; tumors expressing CREB3L1) was “better than rapamycin”, the tumor response (human kidney tumor; tumors expressing CREB3L1, dose about 7 times lower than clinical) was “profoundly inhibited” and the tumor response (human kidney tumor; tumors without CREB3L1 expression, dose about 7 times lower than clinical) was “did not respond”. The “doxorubicin sensitivity of kidney tumors” value (human kidney tumor; tumors without vs with CREB3L1 by 10H1 staining, day 3 to 21) was “much less doxorubicin sensitivity”, the IC50 (MCF-7 cells; MCF7/pCREB3L1(H), 300-fold CREB3L1 overexpression) was ~1 nM and the IC50 (MCF-7 cells; MCF7/pCREB3L1(L), 8-fold CREB3L1 overexpression) was 10 nM. For the same molecule, the IC50 (MCF-7 cells; parental MCF-7 cells) was 500 nM, the “proliferation (cell counting, cellular DNA content)” value (MCF-7 cells; MCF7/pCREB3L1(H) cells) was “markedly blocked proliferation” and the “proliferation (cell counting, cellular DNA content)” value (MCF-7 cells; MCF-7 cells) was “did not affect proliferation”. The “clinically relevant concentration in the serum of patients” value [5] was < 1 µM, the “DNA breaks (histone γH2AX)” value (histone γH2AX) was “induced appearance of histone γH2AX” and the “dose required to shrink tumors” value (MCF7) was “lower”. For the same molecule, the “concentration that blocks proliferation” value (Huh7 cells [1]; Huh7-shCREB3L1 cells) was > 500 nM, the “effect of CREB3L1 siRNA knockdown on sensitivity” value (SV589 cells) was “more resistant” and the “amount of the nuclear form of CREB3L1” value (CREB3L1 [2]) was “markedly raised the amount of the nuclear form of CREB3L1”.
With COc1cc([C@@H]2c3cc4c(cc3[C@@H](O[C@@H]3O[C@@H]5CO[C@@H](C)O[C@H]5[C@H](O)[C@H]3O)[C@H]3COC(=O)[C@H]23)OCO4)cc(OC)c1O [etoposide] the “effect of CREB3L1 overexpression on sensitivity” value (MCF-7 cells; MCF7 cells overexpressing CREB3L1) was “did not increase their sensitivity”, the “effect of CREB3L1 knockdown on resistance” value (Huh7 cells [1]; [6]) was “did not increase their resistance” and the “amount of the nuclear form of CREB3L1” value (CREB3L1 [2]) was “failed to induce cleavage of CREB3L1”.
For CC(=O)O[C@H]1C(=O)[C@@]2(C)[C@H]([C@H](OC(=O)c3ccccc3)[C@]3(O)C[C@H](OC(=O)[C@H](O)[C@@H](NC(=O)c4ccccc4)c4ccccc4)C(C)=C1C3(C)C)[C@]1(OC(C)=O)CO[C@@H]1C[C@@H]2O [paclitaxel], the “requirement of CREB3L1 to inhibit cell growth” value (cell growth) was “not required”.
For bleomycin, the “requirement of CREB3L1 to inhibit cell growth” value (cell growth) was “not required”.
